Source: patent publication US8399508B2, “Olopatadine formulations for topical nasal administration” (Alcon Pharmaceuticals Ltd., priority 2001, dated 2013)
Structures can show the parent of a compound that is named as a salt.

Legend:
Format in all cases: physicochemical
[1] = Acid-base equilibrium of olopatadine (pKa values, iso-electric point)
From the text: Olopatadine has both a carboxylic functional group (pKa1=4.18) and a tertiary amino group (pKa2=9.79). It exists in different ionic forms depending upon the pH of the solution. Olopatadine exists predominantly as a zwitterion in the pH range between the two pKa values with a negatively-charged carboxylic group and a positively-charged tertiary amino group. The iso-electric point of the olopatadine zwitterion is at pH 6.99. At a pH lower than pKa1, cationic olopatadine (with ionized tertiary amino group) is dominant. At a pH higher than pKa2, anionic olopatadine (with ionized carboxylic group) is dominant.

[2] = Effect of NaCl and Na2HPO4 on dissolution of olopatadine hydrochloride in water
Experimental: The effect of NaCl on the dissolution rate of olopatadine hydrochloride in water was determined.

[3] = Effect of NaCl, Na2HPO4 and mannitol on dissolution rate of olopatadine hydrochloride in a nasal vehicle; details: nasal formulation containing 0.01% EDTA and 0.01% BAC
Experimental: The effect of NaCl, Na2HPO4, and mannitol on the dissolution rate of olopatadine hydrochloride in a nasal formulation containing 0.01% EDTA and 0.01% BAC was determined.

[4] = Effect of NaCl and Na2HPO4 concentrations on dissolution of olopatadine hydrochloride in a nasal formulation
Experimental: The effect of NaCl and Na2HPO4 concentrations on the dissolution rate of olopatadine hydrochloride in a nasal formulation containing 0.01% EDTA and 0.01% BAC was determined. The aqueous solubility of olopatadine HCl decreases with increasing concentration of NaCl.

[5] = Example 5: visual observations of clarity during compounding, with and without phosphate buffer; details: without phosphate buffer, 0.7% NaCl, pH as low as 3.6, compounding procedure of Example 1
Experimental: An exemplary compounding procedure for the nasal composition shown in Table 1 is described as below. • 1. Tare a suitable compounding vessel with magnetic stir bar. Add approximately 80% of the batch weight of purified water. • 2. While stirring, add dibasic sodium phosphate (anhydrous), sodium chloride, edetate disodium, benzalkonium chloride and olopatadine HCl. • 3. Add equivalent to approximately 0.55 g, 6N hydrochloric acid per 100 ml batch. • 4. Allow adequate time between each addition for dissolution of each ingredient • 5. Add purified water to approximately 90% of final batch weight. • 6. Measure pH and adjust, if necessary, to 3.7 with 6N (and/or 1N) hydrochloric acid and 1N sodium hydroxide. • 7. Adjust to final batch weight with purified water (QS). • 8. Measure final pH. • 9. Filter through 0.2 μm filtration membrane.
The two compositions shown in Table 2 below were prepared using the procedure described in Example 1 and visual observations of the compositions clarity were made at different points during the compounding procedure.

[6] = Example 6: visual observations, phosphate buffer added to cloudy 0.6% olopatadine composition; details: tested nasal vehicle without a phosphate salt

iso-electric point of the olopatadine zwitterion [1] [pH] | pKa1 (carboxylic functional group) [1] | pKa2 (tertiary amino group) [1] | effect of NaCl on rate of dissolution ([2]; in water) | effect of addition of Na2HPO4 on dissolution ([2]; in water with NaCl) | time for complete dissolution of 0.6% olopatadine solution ([2]; with Na2HPO4) | time for complete dissolution of 0.6% olopatadine solution ([2]; without Na2HPO4, assuming the entire amount would eventually dissolve) | aqueous solubility ([4]; with increasing concentration of NaCl, nasal formulation with 0.01% EDTA and 0.01% BAC) | aqueous solubility ([4]; with increasing phosphate buffer in the presence of NaCl) | dissolution of 0.665% olopatadine hydrochloride in water [5] | solubility of 0.665% olopatadine hydrochloride [6] | Structure (SMILES) | effect of phosphate salt on dissolution rate [3]
6.99 | 4.18 | 9.79 | significant reduction | dramatically improved | less than one minute | at least several hours |  |  |  |  | CN(C)CC/C=C1/c2ccccc2COc2ccc(CC(=O)O)cc21 [Olopatadine, Z-11-(3-dimethylaminopropylidene)-6,11-dihydrodibenz[b,e]oxepine-2-acetic acid] | 
 |  |  |  |  |  |  | decreases | increased aqueous solubility | did not completely dissolve | not soluble | CN(C)CC/C=C1/c2ccccc2COc2ccc(CC(=O)O)cc21 [olopatadine hydrochloride, hydrochloride salt of (Z)-11-(3-dimethylaminopropylidene)-6,11-dihydro-dibenz-[b,e]oxepin-2-acetic acid] | the same as that shown in water in Example 2
